Where “and” joins values, the source holds several entries; their conditions need not be identical. Equal values may be shown once. Marks after values point to notes of the source that are not given here.
Legend:
[1] = Comparative bioavailability after oral administration to rats (plasma LC-MS-MS); assay type: in vivo
Procedure: Test substances, i.e., tapentadol or tapentadol valine carbamate were administered by oral gavage to groups of male Sprague Dawley rats.
Blood samples were taken at various times after administration and submitted to analysis for the parent drug and pro-drug using a validated LC-MS-MS assay. Pharmacokinetic parameters derived from the plasma analytical data were determined using Win Nonlin.

[2] = Comparative bioavailability after oral or intravenous administration to monkeys (plasma LC-MS-MS); assay type: in vivo, cynomolgus monkey; settings: monkey, below the quantitative limit
Procedure: Test substances i.e., tapentadol and tapentadol valine carbamate were administered (either intravenously or orally) to a group of five male cynomolgus monkeys in a three way crossover design. The oral doses were given at 1 mg tapentadol base equivalents/kg while the intravenous dose was 0.5 mg/kg
Blood samples were taken at various times after administration and submitted to analysis for the parent drug and tapentadol valine carbamate using a validated LC-MS-MS assay. Pharmacokinetic parameters derived from the plasma analytical data were determined using Win Nonlin.

[3] = male rat, oral tapentadol 10 mg free base equiv/kg, individual animals 1-5 (5 outlier)

Q: Which “Plasma concentration of tapentadol” value ([1]; male rat, oral tapentadol 10 mg free base equiv/kg, 6 h, individual animals 1-5 (5 outlier)) does the source give for CC[C@@H](c1cccc(O)c1)[C@@H](C)CN(C)C (racemic) [Tapentadol, (−)-(1R,2R)-3-(3-dimethyl-amino-1-ethyl-2-methyl-propyl)-phenol] here?
A: 1.38 ng/mL and 1.19 ng/mL and 1.25 ng/mL and 2.00 ng/mL and 5.77 ng/mL

Q: And the “Plasma concentration of tapentadol” value ([1]; male rat, oral tapentadol 10 mg free base equiv/kg, 8 h, individual animals 1-5 (5 outlier))?
A: 0.991 ng/mL and 1.08 ng/mL and 0.684 ng/mL and 1.27 ng/mL and 5.15 ng/mL

Q: And the “Plasma concentration of tapentadol” value ([1]; male rat, oral tapentadol 10 mg free base equiv/kg, 12 h, individual animals 1-5 (5 outlier))?
A: BLQ (BLQ Values less than level of quantification (LOQ, <0.5 ng/mL))

Q: What about the “Plasma concentration of tapentadol” value ([1]; male rat, oral tapentadol 10 mg free base equiv/kg, 24 h, individual animals 1-5) of the same compound?
A: BLQ (BLQ Values less than level of quantification (LOQ, <0.5 ng/mL))

Q: What about the AUCt of tapentadol [1, 3] of the same compound?
A: 15.4 ng·h/mL and 15.3 ng·h/mL and 14.2 ng·h/mL and 20.6 ng·h/mL and 151 ng·h/mL

Q: And the Cmax of tapentadol [1, 3]?
A: 3.98 ng/mL and 3.61 ng/mL and 5.21 ng/mL and 5.87 ng/mL and 70.5 ng/mL

Q: What about the “T>50%Cmax of tapentadol” value [1, 3] of the same compound?
A: 1.5 h (2×) and 1.0 h and 0.5 h

Q: What about the Tmax of tapentadol [1, 3] of the same compound?
A: 4 h

Q: What about the t½ of tapentadol ([1]; male rat, oral tapentadol 10 mg free base equiv/kg, individual animals 1-5 (5 outlier; animals 1 and 4 estimates)) of the same compound?
A: 6.13^c h and 2.30 h and 3.11 h and 3.83^c h and 2.59 h

Q: What about the AUC of tapentadol ([1]; male rat, oral tapentadol 10 mg free base equiv/kg, individual animals 1-5 (5 outlier; animals 1 and 4 estimates, extrapolated portion >25%)) of the same compound?
A: 24.6^c ng · h/mL and 18.4 ng · h/mL and 17.4 ng · h/mL and 27.8^c ng · h/mL and 156 ng · h/mL

Q: What about the “T>50%Cmax of tapentadol” value ([1]; male rat, oral tapentadol 10 mg free base equiv/kg, median, animal 5 excluded) of the same compound?
A: 1.5^a h

Q: What about the “Plasma concentration of tapentadol” value ([1]; male rat, oral tapentadol valine carbamate 10 mg tapentadol free base equiv/kg, 0.5 h, individual animals 6-10) of the same compound?
A: BLQ (BLQ Values less than LOQ (<0.5 ng/mL))

Q: And the “Plasma concentration of tapentadol” value ([1]; male rat, oral tapentadol valine carbamate 10 mg tapentadol free base equiv/kg, 1 h, individual animals 6-10)?
A: BLQ (BLQ Values less than LOQ (<0.5 ng/mL))

Q: And the “Plasma concentration of tapentadol” value ([1]; male rat, oral tapentadol valine carbamate 10 mg tapentadol free base equiv/kg, 2 h, individual animals 6-10)?
A: BLQ (BLQ Values less than LOQ (<0.5 ng/mL))

Q: And the “Plasma concentration of tapentadol” value ([1]; male rat, oral tapentadol valine carbamate 10 mg tapentadol free base equiv/kg, 3 h, individual animals 6-10)?
A: BLQ (BLQ Values less than LOQ (<0.5 ng/mL))

Q: And the “Plasma concentration of tapentadol” value ([1]; male rat, oral tapentadol valine carbamate 10 mg tapentadol free base equiv/kg, 4 h, individual animals 6-10)?
A: BLQ (BLQ Values less than LOQ (<0.5 ng/mL))

Q: What about the “Plasma concentration of tapentadol” value ([1]; male rat, oral tapentadol valine carbamate 10 mg tapentadol free base equiv/kg, 12 h, individual animals 6-10) of the same compound?
A: BLQ (BLQ Values less than LOQ (<0.5 ng/mL))

Q: What about the “Plasma concentration of tapentadol” value ([1]; male rat, oral tapentadol valine carbamate 10 mg tapentadol free base equiv/kg, 24 h, individual animals 6-10) of the same compound?
A: BLQ (BLQ Values less than LOQ (<0.5 ng/mL))

Q: What about the “T>50%Cmax of tapentadol” value ([1]; male rat, oral tapentadol valine carbamate 10 mg tapentadol free base equiv/kg, individual animals 6-10) of the same compound?
A: 2 h

Q: And the “T>50%Cmax of tapentadol” value ([1]; male rat, oral tapentadol valine carbamate 10 mg tapentadol free base equiv/kg, median)?
A: 2^a h

Q: What about the concentration at 0.5 h ([1]; male, Sprague Dawley, rat, plasma, po, 10 mg free base equiv/kg, oral tapentadol 10 mg free base equiv/kg, 0.5 h, mean, animal 5 excluded, read-out: Plasma concentration of tapentadol) of the same compound?
A: 2.73 ng/mL

Q: And the concentration at 1 h ([1]; male, Sprague Dawley, rat, plasma, po, 10 mg free base equiv/kg, oral tapentadol 10 mg free base equiv/kg, 1 h, mean, animal 5 excluded, read-out: Plasma concentration of tapentadol)?
A: 4.34 ng/mL

Q: What about the concentration at 2 h ([1]; male, Sprague Dawley, rat, plasma, po, 10 mg free base equiv/kg, oral tapentadol 10 mg free base equiv/kg, 2 h, mean, animal 5 excluded, read-out: Plasma concentration of tapentadol) of the same compound?
A: 2.44 ng/mL

Q: What about the concentration at 3 h ([1]; male, Sprague Dawley, rat, plasma, po, 10 mg free base equiv/kg, oral tapentadol 10 mg free base equiv/kg, 3 h, mean, animal 5 excluded, read-out: Plasma concentration of tapentadol) of the same compound?
A: 1.82 ng/mL

Q: What about the concentration at 4 h ([1]; male, Sprague Dawley, rat, plasma, po, 10 mg free base equiv/kg, oral tapentadol 10 mg free base equiv/kg, 4 h, mean, animal 5 excluded, read-out: Plasma concentration of tapentadol) of the same compound?
A: 2.39 ng/mL

Q: And the concentration at 6 h ([1]; male, Sprague Dawley, rat, plasma, po, 10 mg free base equiv/kg, oral tapentadol 10 mg free base equiv/kg, 6 h, mean, animal 5 excluded, read-out: Plasma concentration of tapentadol)?
A: 1.45 ng/mL

Q: And the concentration at 8 h ([1]; male, Sprague Dawley, rat, plasma, po, 10 mg free base equiv/kg, oral tapentadol 10 mg free base equiv/kg, 8 h, mean, animal 5 excluded, read-out: Plasma concentration of tapentadol)?
A: 1.01 ng/mL

Q: And the concentration at 12 h ([1]; male, Sprague Dawley, rat, plasma, po, 10 mg free base equiv/kg, oral tapentadol 10 mg free base equiv/kg, 12 h, individual animals 1-5 (5 outlier), read-out: Plasma concentration of tapentadol)?
A: 1.09 ng/mL

Q: What about the AUC ([1]; male, Sprague Dawley, rat, plasma, po, 10 mg free base equiv/kg, oral tapentadol 10 mg free base equiv/kg, mean, animal 5 and estimates excluded) of the same compound?
A: 17.9 ng·h/mL

Q: And the half-life ([1]; male, Sprague Dawley, rat, plasma, po, 10 mg free base equiv/kg, oral tapentadol 10 mg free base equiv/kg, mean, animal 5 and estimates excluded, read-out: t½ of tapentadol (converted))?
A: 2.64 h

Q: And the AUC(0-t) ([1]; male, Sprague Dawley, rat, plasma, po, 10 mg free base equiv/kg, oral tapentadol 10 mg free base equiv/kg, mean, animal 5 excluded, read-out: AUCt of tapentadol)?
A: 16.4 ng·h/mL

Q: What about the Cmax ([1]; male, Sprague Dawley, rat, plasma, po, 10 mg free base equiv/kg, oral tapentadol 10 mg free base equiv/kg, mean, animal 5 excluded, read-out: Cmax of tapentadol) of the same compound?
A: 4.67 ng/mL

Q: What about the Tmax ([1]; male, Sprague Dawley, rat, plasma, po, 10 mg free base equiv/kg, oral tapentadol 10 mg free base equiv/kg, median, animal 5 excluded, read-out: Tmax of tapentadol) of the same compound?
A: 1 h

Q: What about the “Plasma levels of tapentadol” value ([2]; after giving the drug (tapentadol)) of the same compound?
A: < 0.5 ng/mL

Q: And the “Plasma levels of tapentadol” value ([2]; after giving the prodrug (tapentadol valine carbamate))?
A: < 0.5 ng/mL

Source: patent US20100227921A1, “AMINO ACID AND PEPTIDE CARBAMATE PRODRUGS OF […] USES THEREOF” (SHIRE LLC, priority 2009, published 2010)
